From PMC3032760, “Two-dose-level confirmatory study of the pharmacokinetics and tolerability of everolimus in Chinese patients with advanced solid tumors” (Journal of Hematology & Oncology, 2011)
Several values for one entry are separate records, joined by “and”; a condition that tells them apart may be missing. Equal values may be shown once. Read-outs that look alike come from different tables or passages of the source.

Assays:
Type in all cases: in vivo, human
[1] = Everolimus blood pharmacokinetics (24-h profile day 15, trough levels) in Chinese patients with advanced solid tumors; conditions: for Tmax / Cmax / AUC: human, whole blood; for Tmax: po, read-out: Tmax, median (range); for Cmax / AUC: n = 12, day 15, blood; for Cmax / AUC / Cmin (pre-dose trough concentration): mean (% coefficient of variation); for AUC: read-out: AUC0-τ; for CL/F, mean (± standard deviation): after reaching steady state; for Cmin (pre-dose trough concentration): n = 12, blood; for Time to steady-state levels: continuous daily dosing
Protocol: Blood samples for everolimus 24-h PK profile were collected on day 15 pre-dose and at 1, 2, 4, 6, 8, and 24 h post-dose; blood samples for everolimus trough concentration were collected pre-dose on days 2, 8, 16, and 22. Everolimus concentration was determined after liquid extraction by a liquid chromatography-mass spectroscopy method with lower limits of quantification for everolimus of 0.3 ng/mL. PK parameters of everolimus determined for each cohort included the maximum blood concentration (Cmax), minimum blood concentration (Cmin), time to maximum concentration (Tmax), area under the dosing curve (AUC0-τ), and total body apparent clearance of drug from the blood (CL/F). PK analyses were performed on all patients in the safety population with a sufficient number of evaluable blood samples.

[2] = Safety and tolerability: adverse events graded by NCI CTCAE v3.0; conditions: for Deaths during the study: considered unrelated to everolimus
Source text: Safety assessments included incidence, severity, and treatment relationship of adverse and serious adverse events and the regular monitoring of hematology, serum and urine chemistry, vital signs, and physical condition. Adverse events were graded according to the National Cancer Institute's Common Terminology Criteria for Adverse Events, version 3.0 [22]. The safety population consisted of all patients who received ≥1 dose of study drug and had ≥1 post-baseline safety assessment.

advanced solid tumors = experiment: Tumor response and progression by RECIST; conditions: for Best overall tumor response stable disease, patients: n = 12; for Patients with stable disease: both cohorts, 6 patients per tumor type
Protocol: Tumor response and progression was assessed locally for all randomized patients using RECIST criteria. A computed tomography scan or magnetic resonance image of the chest, abdomen, and pelvis was performed at screening and every 2 months (±7 days) thereafter. Confirmatory imaging results ≥4 weeks after an initial observation were required for a positive assessment of complete or partial response.

[3] = Patient disposition at final analysis; conditions: n = 12
Protocol: Patients continued treatment until tumor progression, unacceptable toxicity, death, or discontinued if the investigator or patient felt it was in the patient's best interest to discontinue participation. Dose modifications were allowed in the event of adverse events grade ≥2. Specific nomograms were followed to manage patients who developed known toxicities of everolimus, such as non-infectious pneumonitis.
This final analysis was performed after all patients had received 6 months of study drug or had discontinued from the study.

[4] = 5 mg/day, n = 12, suspected relationship to everolimus
[5] = 10 mg/day, n = 12, suspected relationship to everolimus

CO[C@H]1C[C@@H]2CC[C@@H](C)[C@@](O)(O2)C(=O)C(=O)N2CCCC[C@H]2C(=O)O[C@H]([C@H](C)C[C@@H]2CC[C@@H](OCCO)[C@H](OC)C2)CC(=O)[C@H](C)/C=C(\C)[C@@H](O)[C@@H](OC)C(=O)[C@H](C)C[C@H](C)/C=C/C=C/C=C/1C [Everolimus, everolimus]
Cmin, Cmax and AUC0-τ with 10 mg/day relative to 5 mg/day ([1]; 10 mg/day versus 5 mg/day): approximately 2 fold
Tmax ([1]; 5 mg/day, oral 5 mg/day, n = 12): 3 h
Tmax ([1]; 10 mg/day, oral 10 mg/day, n = 12): 2 h
Cmax ([1]; oral 5 mg/day): 28.8 ng/mL
AUC ([1]; oral 5 mg/day): 316 ng·h/mL
Cmax ([1]; oral 10 mg/day): 53.8 ng/mL
AUC ([1]; oral 10 mg/day): 589 ng·h/mL
CL/F, mean (± standard deviation) ([1]; oral 5 mg/day): 16.7 (±5.6) L/h
Tmax, median (range) ([1]; oral 5 mg/day, n = 12): 2.96 (1.00-4.00) h
Cmin (pre-dose trough concentration) ([1]; oral 5 mg/day): 8.3 (46.8) ng/mL
CL/F, mean (± standard deviation) ([1]; oral 10 mg/day): 18.2 (±7.2) L/h
Cmin (pre-dose trough concentration) ([1]; oral 10 mg/day): 14.5 (47.9) ng/mL
Time at which maximum blood concentrations were generally reached ([1]; oral 5 and 10 mg/day): 2 to 4 h
Time to steady-state levels ([1]; oral 5 and 10 mg/day): ≤ 8 days
Time to steady-state levels ([1]; oral 5 and 10 mg/day, listed as everolimus): 8 days
Fatigue suspected to be related to everolimus, patients ([2]; 5 mg/day cohort): 16.7%
Hyperglycemia (increased blood glucose) suspected to be related to everolimus, patients ([2]; 5 mg/day cohort): 16.7%
Patients with grade 3 adverse events suspected to be related to everolimus ([2]; 5 mg/day cohort): 25%
Deaths during the study ([2]; 5 mg/day cohort): 1
Adverse events with suspected relationship to everolimus: Total, All grades ([2]; 5 mg/day, n = 12): 12 (100) n (%)
Adverse events with suspected relationship to everolimus: Total, Grade 3 ([2]; 5 mg/day, n = 12): 3 (25.0) n (%)
Adverse events with suspected relationship to everolimus: Total, Grade 4 ([2]; 5 mg/day, n = 12): 0 n (%)
Anemia, All grades [2, 4]: 1 (8.3) n (%)
Anemia, Grade 3 [2, 4]: 1 (8.3) n (%)
Anemia, Grade 4 [2, 4]: 0 n (%)
Blood alkaline phosphatase increased, All grades [2, 4]: 1 (8.3) n (%)
Blood alkaline phosphatase increased, Grade 3 [2, 4]: 0 n (%)
Blood alkaline phosphatase increased, Grade 4 [2, 4]: 0 n (%)
Fatigue, All grades [2, 4]: 2 (16.7) n (%)
Fatigue, Grade 3 [2, 4]: 0 n (%)
Fatigue, Grade 4 [2, 4]: 0 n (%)
Hyperglycemia, All grades [2, 4]: 2 (16.7) n (%)
Hyperglycemia, Grade 3 [2, 4]: 0 n (%)
Hyperglycemia, Grade 4 [2, 4]: 0 n (%)
Hypokalemia, All grades [2, 4]: 3 (25.0) n (%)
Hypokalemia, Grade 3 [2, 4]: 1 (8.3) n (%)
Hypokalemia, Grade 4 [2, 4]: 0 n (%)
Thrombocytopenia, All grades [2, 4]: 2 (16.7) n (%)
Thrombocytopenia, Grade 3 [2, 4]: 1 (8.3) n (%)
Thrombocytopenia, Grade 4 [2, 4]: 0 n (%)
Upper respiratory tract infection, All grades [2, 4]: 1 (8.3) n (%)
Upper respiratory tract infection, Grade 3 [2, 4]: 1 (8.3) n (%)
Fatigue suspected to be related to everolimus, patients ([2]; 10 mg/day cohort): 33.3%
Hyperglycemia (increased blood glucose) suspected to be related to everolimus, patients ([2]; 10 mg/day cohort): 41.7%
Patients with grade 3 adverse events suspected to be related to everolimus ([2]; 10 mg/day cohort): 25%
Deaths during the study ([2]; 10 mg/day cohort): 2
Adverse events with suspected relationship to everolimus: Total, All grades ([2]; 10 mg/day, n = 12): 12 (100) n (%)
Adverse events with suspected relationship to everolimus: Total, Grade 3 ([2]; 10 mg/day, n = 12): 3 (25.0) n (%)
Adverse events with suspected relationship to everolimus: Total, Grade 4 ([2]; 10 mg/day, n = 12): 0 n (%)
Anemia, All grades [2, 5]: 3 (25.0) n (%)
Anemia, Grade 3 [2, 5]: 0 n (%)
Anemia, Grade 4 [2, 5]: 0 n (%)
Blood alkaline phosphatase increased, All grades [2, 5]: 3 (25.0) n (%)
Blood alkaline phosphatase increased, Grade 3 [2, 5]: 1 (8.3) n (%)
Blood alkaline phosphatase increased, Grade 4 [2, 5]: 0 n (%)
Fatigue, All grades [2, 5]: 4 (33.3) n (%)
Fatigue, Grade 3 [2, 5]: 1 (8.3) n (%)
Fatigue, Grade 4 [2, 5]: 0 n (%)
Hyperglycemia, All grades [2, 5]: 5 (41.7) n (%)
Hyperglycemia, Grade 3 [2, 5]: 1 (8.3) n (%)
Hyperglycemia, Grade 4 [2, 5]: 0 n (%)
Hypokalemia, All grades [2, 5]: 2 (16.7) n (%)
Hypokalemia, Grade 3 [2, 5]: 0 n (%)
Hypokalemia, Grade 4 [2, 5]: 0 n (%)
Thrombocytopenia, All grades [2, 5]: 3 (25.0) n (%)
Thrombocytopenia, Grade 3 [2, 5]: 0 n (%)
Thrombocytopenia, Grade 4 [2, 5]: 0 n (%)
Upper respiratory tract infection, All grades [2, 5]: 0 n (%)
Upper respiratory tract infection, Grade 3 [2, 5]: 0 n (%)
Upper respiratory tract infection, Grade 4 [2, 5]: 0 n (%)
Noninfectious pneumonitis ([2]; 5 and 10 mg/day cohorts): not observed
Tolerability ([2]; 5 or 10 mg/day, Chinese patients with advanced solid tumors): well tolerated
Patients reporting ≥1 adverse event ([2]; both cohorts, 24 patients in total): 24 patients
Grade 3 upper respiratory tract infection, patients ([2]; whole study, reversible with remedial treatment and interruption of everolimus): 1 patient
Progressive disease as best overall response, patients (advanced solid tumors; 5 mg/day cohort): 16.7%
Best overall tumor response stable disease, patients (advanced solid tumors; 5 mg/day cohort): 83% and 83.3%
Median duration of stable disease (advanced solid tumors; 5 mg/day cohort, 95% CI 2.89-8.05): 5.03 months
Progressive disease as best overall response, patients (advanced solid tumors; 10 mg/day cohort): 41.7%
Best overall tumor response stable disease, patients (advanced solid tumors; 10 mg/day cohort): 50%
Median duration of stable disease (advanced solid tumors; 10 mg/day cohort, 95% CI 3.58-not reached): 6.08 months
Median duration of stable disease (advanced solid tumors; 4 patients with RCC, at data cutoff, 95% CI 6.08-11.1+): not yet been reached
Complete or partial responses (advanced solid tumors; 5 and 10 mg/day cohorts, RECIST): No complete or partial responses
Patients with stable disease (advanced solid tumors; NSCLC): 4 patients
Patients with stable disease (advanced solid tumors; RCC): 4 patients
Patients with stable disease (advanced solid tumors; breast cancer): 3 patients
Patients with stable disease (advanced solid tumors; gastric cancer): 5 patients
Discontinued: Death ([3]; 5 mg/day): 0 n (%)
Discontinued: Disease progression ([3]; 5 mg/day): 9 (75.0) n (%)
Discontinued: Death ([3]; 10 mg/day): 2 (16.7) n (%)
Discontinued: Disease progression ([3]; 10 mg/day): 7 (58.3) n (%)
